Experimental data taken from patent publication US20090232735A1, “USE OF FRUCTOSE-BASED THERAPIES FOR THE TREATMENT OF CANCER” (CEDARS-SINAI MEDICAL CENTER, priority 2005, published 2009).

What was measured:
[1] = test system: PANC-1 pancreatic cancer cells; experiment: FACS cell cycle profile of PANC-1 cells; format: cell-based, human; conditions: PANC-1, 5.5 mM sugar, 48 h
Procedure: FIG. 15 depicts in the G0/G1 phase and the DNA synthesis (S) phase of pancreatic cells in glucose and fructose in accordance with an embodiment of the present invention. PANC-1 cells were plated in 2, and 5.5 mM glucose or 5.5 mM fructose for 48 h, after which cells were fixed in methanol, nuclei were stained with propidium iodide, and aliquots subjected to FACS analyzes.
This first result intrigued the inventors, but given there is little documentation regarding physiological fructose concentrations, the inventors first considered that the “apparent” pro-proliferative effects of fructose were simply a consequence of the highly stylized in vitro experimental conditions, and that if the pancreatic cancer cells were cultured in higher glucose concentrations, this would result in similar proliferative rates to those the inventors observed following culture in 5.5 mM fructose. Therefore, in the next experiments, the inventors compared proliferative rates of the PANC-1 pancreatic cancer cells following culture for 72 h in a range of fructose, and glucose concentrations (2-25 mM). This timepoint was chosen as the inventors had seen maximal pancreatic cancer cell proliferation in 5.5 mM fructose at 72 h. […] While not wishing to be bound by any particular theory, the inventors believe that this latter finding may be because the PANC-1 cells are proliferating at close to maximal capacity by 72 h, once they are exposed to comparatively low fructose concentrations (5 mM). MTS assay was employed to measure pancreatic cancer cell proliferative rates, which utilizes mitochondrial oxidation to quantify cell proliferation. As the inventors were examining carbohydrate-mediated effects, the inventors considered the change observed in proliferative rates, as measured by this assay, simply reflected changes in mitochondrial oxidation. Therefore, two additional methods were utilized to examine proliferative rates following fructose-treatment. […]

[2] = test system: normal pancreas cells; experiment: Proliferation of normal pancreas cells (BRDU-uptake, MTS); format: cell-based, human; conditions: 72 h
Procedure: FIG. 20 depicts a degree of increased proliferation of normal pancreatic cells in accordance with an embodiment of the present invention. Freshly resected normal pancreas tissues were mechanically and enzymatically dispersed, and cells were pre-incubated in 2 mM glucose prior to treatment with 5.5 mM glucose or fructose for 72 h. BRDU (10 μM) was added to the medium at 60 h, and BRDU-uptake quantified at 72 h.
In the course of obtaining fresh surgically resected pancreatic cancer tissue, the inventors also obtained some peripherally adjacent “normal” pancreatic tissue and normal tissue from a patient undergoing pancreas resection for complications of chronic pancreatitis. The inventors studied 5 of these “normal” pancreas tissues, and although caveats may exist given that they were derived from pancreases which were involved with another disease entity, the inventors believe they offer a useful comparator for the tumors. […] As before, BRDU (10 µM) was added, after which BRDU-uptake was quantified. In parallel experiments, when sufficient normal pancreatic issue was available, proliferative rates following 72 h incubation in the sugars were also measured using the MTS proliferation assay. […]

[3] = test system: AP-1 activation in a primary culture of a pancreatic tumor; experiment: AP-1 probe binding assay, primary pancreatic tumor culture; format: cell-based, human; conditions: 5.5 mM sugar
Procedure: FIG. 24 depicts luciferase activity of PANC-1 cells and primary culture of surgically resected pancreatic tumor cells in accordance with an embodiment of the present invention. PANC-1 pancreatic cancer cells and a primary culture of a surgically resected pancreatic tumor were incubated in 2 mM glucose, 5.5 mM glucose or 5.5 mM fructose for 48 h, after which nuclear extracts were incubated with a biotinylated AP-1 probe, and detected by an antibody-linked colorimetric method. *, p<0.01
In separate experiments PANC-1 cells, and primary cultures of surgically resected pancreatic tumors were incubated in 2 mM glucose, or 5.5 mM glucose or 5.5 mM fructose for 48 h, after which nuclear extracts were incubated with a biotinylated AP-1 probe in binding buffer. AP-1/AP1 probe complexes were next conjugated to a streptavidin-coated assay plate and detected using an AP-1 specific antibody, followed by binding of a horseradish-peroxidase conjugated secondary antibody, and detection by a colorimetric reagent.

[4] = test system: uric acid production in PANC-1 cells; experiment: Uricase activity / uric acid production in PANC-1 conditioned medium; format: cell-based, human; conditions: 5.5 mM fructose
Procedure: FIG. 32 depicts uric acid productionin PANC-1 cells in accordance with an embodiment of the present invention. Uric acid production in pancreatic cancer PANC-1 cells following incubation in 2 mM glucose, 5.5 mM glucose, and 5.5 mM fructose for 24 h, 48, 72, and 96 h respectively, p<0.01 5.5 mM fructose versus 5.5 mM glucose.
Based on the metabolomic studies which led the inventors to believe that fructose was metabolized in pancreatic cancer cells in large part to generate nucleic acids, the inventors devised a series of experiments to examine nucleic acid synthesis in the pancreatic cancer cells following either glucose or fructose-treatment. PANC-1 cells were incubated as before in 5.5 mM glucose or fructose for 24 h, following an ELISA-based fluorimetric assay (Amplex Red Uric acid uricase assay kit, Invitrogen) was employed to measure uricase activity in conditioned medium derived from the pancreatic cancer cells (Shi Y, Evans J E, Rock K L. Molecular identification of a danger signal that alerts the immune system to dying cells Nature 425, 516-21, 2003). Uricase activity correlates highly with uric acid production, a purine by-product of nucleic acid synthesis. […] Fluoresence was measured in a fluorescence microplate reader using excitation at 530 nm and detection at 590 nm, and the assay can detect levels as low as 100 nM uric acid.

[5] = test system: pancreatic cancer development; conditions: cited from earlier work

O=C(CO)[C@@H](O)[C@H](O)[C@H](O)CO [fructose]
increase of cells in S-phase in comparison to 2 mM glucose [1]: ~17% | percentage of cells in S-phase [1]: 47% | percentage of cells in resting G0/G1 [1]: 21.2% | proliferative rates, 5.5 mM glucose vs 5.5 mM fructose [2]: did not differ significantly | increase in AP-1 activation compared to 2 mM glucose [3]: 2.1 fold | uricase activity higher than glucose-treated cells ([4]; 96 h): ~20% | uricase activity higher than glucose-treated cells ([4]; 120 h): ~50% | relative risk of pancreatic cancer ([5]; high fructose intake, women with increased BMI (>25) or sedentary lifestyle): 3.17 | increased risk of pancreatic cancer development ([5]; women reporting a high fructose-intake): 57%
